“Also recorded” adds a separate entry of the source. Structures can show the parent of a compound that is named as a salt. Where two headings read alike, the source gives them in different places.

Type in all cases: in vivo, C. elegans
The subject of experiment [1] is sGFP::ATZ. The experiment is described as follows: LOPAC library high-content primary screen for sGFP::ATZ accumulation in transgenic animals. Conditions: for Rank-score: 24 h.
In experiment [2] the test system is sGFP::ATZ. The experiment is described as follows: Hit compound characterization: dose-response in the sGFP::ATZ HCS assay. Also on record: key to dose-dependent response: c: Compound demonstrated a dose-dependent response.; Compound failed to demonstrate a dose-dependent response. Particulars: for degradation of aggregated ATZ protein: Caenorhabditis elegans model system; for effect on sGFP::ATZ accumulation: dose-response, 0-100 μM; for dose-dependent response: retest at 0-100 μM, 24 or 48 hours. As to the method: Imaging of animals using the ArrayScan VTI: Prior to imaging, worms were anesthetized by adding 30 μl of 0.02 M NaN3 in PBS to each well. Plates were resealed, inverted twice, and incubated for 5 minutes at room temperature. Images were acquired with the ArrayScan VTI HCS Reader fitted with a 2.5× objective and a 0.63× coupler using a 2-channel (TRITC and GFP) assay. Real-time analysis was performed using the SpotDetector BioApplication optimized to quantify fluorescent protein expression in C. elegans. Image acquisition and analysis of a 384-well plate was completed in <45 minutes. The total number of animals in the well was determined by counting the number of red heads (Pmyo-2mRFP) in the TRITC channel. Total spot area or total spot intensity was determined by quantifying the GFP-positive spots in the GFP channel. Total spot area or total spot intensity per animal was determined by dividing the values from the GFP channel by that from the TRITC channel.
Hit compound characterization: Compounds that were identified as potential hits were purchased (if available) and retested for verification. […] Compounds that produced a response in a dose-dependent manner were further tested for a time-dependent response. Compound dose-response curves were performed by dispensing 15 μl of a 4× stock solution into 384-well plates containing 15 μl of assay medium (see above). Thirty-five animals were sorted into each well bringing the volume to ˜60 μl. The final compound concentrations in each well varied from 0-100 μM. Assay plates were incubated in a 22° C. incubator for 24 or 48 hours. Each compound was tested in quadruplicate in at least 2 independent experiments.
Statistical evaluation: Statistical evaluation of data was performed using Prism® (Graphpad Software). The significance of actual and predicted data in FIGS. 12, 14 and 15 was determined using a linear regression analysis and comparing the slope and goodness-of-fit (r2) values. Statistical significance of the spot count, spot area and spot intensity values between N2 (wild-type) and various transgenic lines in FIG. 13 and dose-response in FIG. 17 was determined using an unpaired, one-tailed, Student's t-test.
Compound screen: To test the HCS protocol, a pilot drug screen was performed using the library of pharmacologically active compounds (LOPAC1280™ 1280 compounds). Tight gating parameters for total fluorescence were used to sort 35 young adult Pnhx2sGFP::ATZ animals into wells of 384-well plates containing […] of a LOPAC compound and 0.5% DMSO. Pnhx2sGFP::ATZ animals incubated with 0.5% DMSO served as untreated controls and were placed in the first-two and last-two columns of each plate. In a representative experiment, plate 1 of the LOPAC library was set-up for screening on day 1, and 3 other plates were set-up on the next day. After 24 incubation at 25° C., animals were immobilized by the addition of NaAz and placed in the ArrayScan VTI for automated imaging. To examine for systematic errors, the raw data (total spot area/animal) were depicted as a plate-well scatter plot (FIG. 17A). […] This difference reflects a wider sort-window used to collect animals on day 1 in comparison to that used on day 2. As the average values of the negative controls and that of the sample wells were similar, we combined the control and samples wells for normalization and to identify potential hits using the z-score (FIG. 17B). The ArrayScan VTI reads microtiter plates by rows, alternating from left-to-right, and then right-to-left. For some assays, we noted that the control fluorescence values would drift upwards slightly in rows towards the bottom of the plate. This drift appeared to correlate with an increase in chamber temperature during the scanning period and was minimized by cooling the chamber with a fan or shortening the read times by using 2.5× objective with a 0.6 coupler. Nonetheless, intra-plate variation was controlled for by presenting the data as a B-score (FIG. 17C). […]

The test system of a further experiment is mCherry::LGG-1. The experiment is described as follows: Induction of autophagy in transgenic animals expressing Pnhx-2mCherry::lgg-1. Particulars: compared with well-fed animals treated with DMSO (diffuse). The source says:
FIG. 18A-E. Induction of autophagy by hit compounds. Images of transgenic animals expressing Pnhx-2mCherry:lgg-1 treated with various compounds are shown. Images were acquired using a Nikon instruments TiEclipse widefield light microscope fitted with a 20× Plan Apochromat objective. Images were then deconvolved using Volocity (Perkin Elmer, v 5.3.2). Deconvolved z planes were then merged to a single plane. Well-fed animals treated with DMSO (A) show a diffuse mCherry expression throughout the intestine. […] Starved (E) animals are included as a positive control for autophagy. Scale bar, 50 μm.
Macroautophagy is a cellular process in which a double membrane envelops cytosolic components or organelles (autophagosome) and delivers this material to a lysosome (autophagolysosome) for degradation and recycling (reviewed in 79). LGG-1/LC3/Atg8 is a diffuse cytosolic protein that participates in autophagosome formation and becomes inserted into the autophagosome membrane (80). Upon autophagosome formation, LGG-1 fused to mCherry changes its cytoplasmic distribution pattern from diffuse (lower fluorescence intensity) to punctate (higher fluorescence intensity) (80). To determine whether the imaging system could follow this process, a strain expressing a Pnhx-2mCherry::lgg-1 transgene was examined after starvation, a potent inducer of intestinal autophagosome formation (81). In well-fed animals, the diffuse cytoplasmic fluorescence in the intestinal cells was well above that of the N2 background (FIGS. 13K-13L, 13O-13Q). To detect mCherry::LGG-1 puncta, the diffuse fluorescence intensity of the well-fed animals was used to calibrate a threshold from which the SpotDetector BioApplication could detect any high-intensity spots. Although basal autophagy in the well-fed animals yielded a few spots (FIG. 13O), the large number of distinct puncta in the starved animals (FIGS. 13M, 13N, 13O-Q) indicated a marked increase in autophagy that was detected best by a statistically significant increase in spot count or total spot intensity per animal (FIGS. 13O and 13Q, respectively). […]

Where [3] appears, read: among compounds that decreased ATZ accumulation, based on relative rank-scores.
Setting [4] is: average of compound rankings by ascending B-score from two independent screens, 50 μM, <110 decreased, >1225 increased sGFP::ATZ inclusions.
Where [5] appears, read: among compounds that increased ATZ accumulation, based on relative rank-scores.

Consider `CC12C(=O)OC(=O)C1(C)C1CCC2O1` (stereo not shown) [cantharidin, 2,6-Dimethyl-4,10-dioxatricyclo-[5.2.1.02,6]decane-3,5-dione], for which the Overall rank-order with sGFP::ATZ [1] (setting [3]) is 2. Moreover, the Rank-score with sGFP::ATZ [1] (setting [4]) was 2.5. In addition, in the experiment with sGFP::ATZ [2] (C. elegans assay), the “concentration at which an anti-protein aggregate effect was achieved” value was found to be 100 µM. Besides, in the experiment on sGFP::ATZ [2], the “degradation of aggregated ATZ protein” value is on record as “able to promote degradation of aggregated ATZ protein”, the “effect on sGFP::ATZ accumulation” value is “dose-dependant decrease in sGFP::ATZ accumulation; also recorded: decreased” and the dose-dependent response entry is “cantharidin^c”. Besides, in the experiment on sGFP::ATZ [2] (listed as Cantharidin), the “effect on sGFP::ATZ accumulation” value was “dose-dependent decrease in sGFP::ATZ accumulation”. Besides, the “mCherry::LGG-1 distribution pattern (autophagic activity)” value in the experiment with mCherry::LGG-1 is on record as “markedly punctate distribution pattern indicative of increased autophagic activity”.

`CC(=O)c1c(O)c(C)c(O)c(Cc2c(O)c3c(c(C(=O)/C=C/c4ccccc4)c2O)OC(C)(C)C=C3)c1O` [rottlerin] showed an Overall rank-order with sGFP::ATZ [1] (setting [5]) of 15. Further, the Rank-score with sGFP::ATZ [1] (setting [4]) worked out at 1229.5. Also, the dose-dependent response entry in the experiment with sGFP::ATZ [2] was “rottlerin^c”.

The compound `CC/C(=C(\c1ccccc1)c1ccc(OCCN(C)C)cc1)c1ccccc1` [tamoxifen citrate, (Z)-2-[4-(1,2-diphenylbut-1-enyl)phenoxy]-N,N-dimethylethylamine] displayed an Overall rank-order in the experiment on sGFP::ATZ [1] (setting [3]) of 24. The compound also returned a Rank-score with sGFP::ATZ [1] (setting [4]) of 83.5. For the same compound, in the experiment on sGFP::ATZ [2], the “degradation of aggregated ATZ protein” value is “able to promote degradation of aggregated ATZ protein”, the “effect on sGFP::ATZ accumulation” value is “dose-dependant decrease in sGFP::ATZ accumulation” and the dose-dependent response entry was “tamoxifen citrate^c”.

For the compound `CC(=O)O[C@H]1C(=O)[C@@]2(C)[C@H]([C@H](OC(=O)c3ccccc3)[C@]3(O)C[C@H](OC(=O)[C@H](O)[C@@H](NC(=O)c4ccccc4)c4ccccc4)C(C)=C1C3(C)C)[C@]1(OC(C)=O)CO[C@@H]1C[C@@H]2O` [taxol, 5β,20-Epoxy-1,2α,4,7β, 10β,13α-hexahydroxytax-11-en-9-one 4,10-diacetate 2-benzoate 13-ester with (2R,3S)—N-benzoyl-3-phenylisoserine], in the experiment on sGFP::ATZ [1], the Overall rank-order turned out to be 19. This compound also showed a Rank-score in the experiment on sGFP::ATZ [1] (50 µM) of 73.5. For the same compound, in the experiment on sGFP::ATZ [2], the “degradation of aggregated ATZ protein” value was “able to promote degradation of aggregated ATZ protein” and the dose-dependent response entry was “taxol^c”.

`C/C=C(/C)C(=O)O[C@H]1C(C)=C2[C@H]([C@@H]1OC(=O)CCCCCCC)[C@@](C)(OC(C)=O)C[C@H](OC(=O)CCC)[C@@]1(O)[C@H]2OC(=O)[C@@]1(C)O` [thapsigargin] returned an Overall rank-order in the experiment on sGFP::ATZ [1] (setting [5]) of 2. Also, in the experiment with sGFP::ATZ [1] (setting [4]), the Rank-score is 1256.0. The dose-dependent response result with sGFP::ATZ [2] is recorded as “thapsigargin^c”.

In turn, `CC(C)(C)c1cc(/C=C(\C#N)C(N)=S)cc(C(C)(C)C)c1O` [tyrphostin AG 879] returned an Overall rank-order in the experiment with sGFP::ATZ [1] (setting [5]) of 10. This compound also had a Rank-score in the experiment with sGFP::ATZ [1] (setting [4]) of 1236.5. Moreover, in the experiment on sGFP::ATZ [2], the “effect on sGFP::ATZ accumulation” value was “increased” and the dose-dependent response entry is on record as “tyrphostin AG 879^c”. For the same compound, the “effect on sGFP::ATZ accumulation” value with sGFP::ATZ [2] (listed as tyrphostatin) is on record as “increase in sGFP::ATZ accumulation”.

In turn, L(−)-norepinephrine bitartrate displayed an Overall rank-order in the experiment on sGFP::ATZ [1] (setting [3]) of 7. Further, in the experiment with sGFP::ATZ [1] (setting [4]), the Rank-score turned out to be 36.5. Also, the dose-dependent response result with sGFP::ATZ [2] is “L(−)-norepinephrine bitartrate^d”.

Consider ivermectin, for which the Overall rank-order with sGFP::ATZ [1] (setting [3]) worked out at 1. The compound also registered a Rank-score in the experiment with sGFP::ATZ [1] (setting [4]) of 2.0. The dose-dependent response result with sGFP::ATZ [2] is on record as “ivermectin^d”.

Source of the values: patent publication US9820990B2, “Methods of treating disorders associated with protein aggregation” (University of Pittsburgh—Of the Commonwealth System of …, priority 2009, dated 2017).
